{"source": "patent US20230321053A1", "about": "“(1R,3S)-3-((5-CYANO-4-PHENYLTHIAZOL-2-YL)CARBAMOYL)CYCLOPENTANE-1-CARBOXYLIC ACID AND DERIVATIVES THEREOF FOR USE IN THE TREATMENT OF AIRWAY DISEASES” (PALOBIOFARMA, S.L., priority 2020, published 2023)", "molecules": {"B1": {"name": "mepolizumab: anti-IL-5 monoclonal antibody (antibody, chains of the INN, looked up, V domains shown)", "VH": "QVTLRESGPALVKPTQTLTLTCTVSGFSLTSYSVHWVRQPPGKGLEWLGVIWASGGTDYNSALMSRLSISKDTSRNQVVLTMTNMDPVDTATYYCARDPPSSLLRLDYWGRGTPVTVSS", "VL": "DIVMTQSPDSLAVSLGERATINCKSSQSLLNSGNQKNYLAWYQQKPGQPPKLLIYGASTRESGVPDRFSGSGSGTDFTLTISSLQAEDVAVYYCQNVHSFPFTFGGGTKLEIK"}}, "key": {"Brown Norway rats": {"test_system": "Brown Norway rats", "conditions": "orally administered, antigen induced; cited from earlier work"}, "TNFalpha": {"test_system": "TNFalpha", "conditions": "rat; cited from earlier work"}, "[1]": {"test_system": "chronic obstructive pulmonary disease", "conditions": "16-week trial; cited from earlier work"}, "COPD patients [2]": {"test_system": "COPD patients", "conditions": "baseline sputum eosinophils ≥3%; cited from earlier work"}, "[3]": {"test_system": "patients with mild-to-moderate persistent atopic asthma", "test": "Peripheral blood eosinophil count, phase II placebo-controlled study", "format": "in vivo, human", "conditions": "10 mg once daily", "description": "Eosinophil count. Peripheral blood eosinophil counts were obtained from standard complete blood counts done at every centre participating in the study. For example, by using standardized methods on a Beckman Coulter LH series analyzer (Beckman Coulter Ltd, Brea, CA, USA), Negewo, N. A. et al, Peripheral blood eosinophils: a surrogate marker for airway eosinophilia in stable COPD, Int J Chron Obstruct Pulmon Dis. 2016; 11: 1495-1504).\n(§1) Eosinophils in S.I units (10^9/L) will be converted in cel/µL with the conversion factor 1 × 10^9/L =1000 cel/µL. The primary efficacy analysis on Per Protocol Population was stratified into 2 subgroups based on Eosinophils (cel/ µL) value at visit V1 from Hematology (Low < 300 cel/ µL, and High >=300 cel/ µL). Trough FEV1 on day 16 (+4-day leeway) was summarized by treatment arm and Eosinophils value at visit V1. A mixed model with FEV1 measurements on day 16 (23 h 15 min and 23 h 45 min post-dose), containing treatment arm and Eosinophils strata as fixed effects, site as random effect with baseline FEV1 on visit V5 as a covariate was fitted.\n(§2) The present trial is an exploratory study aiming at evaluating the safety, tolerability, and efficacy of a 15-day, once daily administration of 10 mg Compound (I) in subjects with persistent mild-to-moderate atopic asthma. In terms of exploratory efficacy, the primary purpose of this study is to determine whether Compound (I) compared to placebo, improves the FEV1, as well as to provide comparative safety data from this population of asthmatics. Measurements made in this study will also be used to establish whether this treatment improves other variables related to asthma control and lung function.\n(§3) A phase II, double-blind, randomized, parallel-group, placebo-controlled multi-center study to investigate the effect of the adenosine A1 receptor antagonist Compound (I) on forced expiratory volume in 1 second (FEV1) in patients with mild-to-moderate persistent atopic asthma.\nThe study comprises: (i) a minimum of 5-days screening period, during which the subject’s clinical stability and overall eligibility for the study will be assessed; (ii) a weaning phase where a stepwise tapering of the asthma medication will be done upon 7-day periods; (iii) the randomized, parallel-arm treatment period; and (iv) an end-of-study follow-up visit. The asthma medication weaning period comprises three possible visit pathways in order to adjust for each subject’s asthma therapy on study entry. The study comprises a primary analysis population of 58 stable asthmatic subjects managed as described for the objectives, who meet all inclusion criteria and no exclusion criteria and complete a full, valid data set for the primary variable."}, "[4]": {"test_system": "patients with mild-to-moderate persistent atopic asthma", "test": "Trough FEV1 (spirometry), phase II placebo-controlled study", "format": "in vivo, human", "conditions": "for FEV1 LS means difference vs Placebo, Eosinophils category High, Estimate (SE): eosinophils High at V1, p 0.0164; for FEV1 LS means difference vs Placebo, Eosinophils category Low, Estimate (SE): eosinophils Low at V1, p 0.7778", "method": "as §1\n(§4) FEV1. Briefly. Spirometry measurements will be performed using spirometry equipment which meets or exceeds the minimal performance recommendations of the ATS/ERS standards (Miller M. R et al, Standardisation of spirometry, Eur Respir J 2005; 26: 319-338). Calibration and quality control should be performed before the site initiation: • a. A 3L syringe will be used to verify spirometer accuracy. • b. The accuracy of the syringe should be certified within the last 12 months and should have an accuracy of ± 15 ml. • c. Before use, the syringe should be maintained at the same temperature as the spirometer to ensure volume stability. • d. For volume-type spirometers, a calibration and leak check must be performed before each testing session according to the manufacturer’s guidelines. A calibration report stored in the site’s source documents is required to confirm the adherence to guidelines. Example of spirometry equipment used in the trial: Jaeger and ERT Spirosphere.\nas §2, §3\n(§5) Secondary objectives include determinations of FEV1 area under the curve (AUC), evaluations on pre- and post- bronchodilator FEV1, and patient reported outcomes (PROs) including Asthma Control Questionnaire-7 (ACQ-7) and Standardized Asthma Quality of Life Questionnaire (AQLQ(S)).\nA mixed model with FEV1 measurements on day 16 (23 h 15 min and 23h 45 min post-dose), containing treatment arm as a fixed effect, site as random effect with baseline FEV1 on visit V5 as a covariate was fitted. The treatment effect was larger for Compound (l) group compared to placebo, increasing the FEV1 on 180 mL (p= 0.0816).\nFEV1: forced expiratory volume in 1 second; SD: standard deviation; SE: standard error; min: minimum; max: maximum; LS: least squares; Cl: confidence interval. Trough FEV1 on day 16 (+4-day leeway), defined as the average of the FEV1 measurements taken at 23 h15 min and 23 h45 min post-dose."}, "[5]": {"test_system": "patients with mild-to-moderate persistent atopic asthma", "test": "FEV1 AUC30min-23h30min post-dose, phase II study", "format": "in vivo, human", "description": "as §4, §5"}, "[6]": {"test_system": "patients with mild-to-moderate persistent atopic asthma", "test": "Asthma Control Questionnaire-7 (ACQ-7), phase II study", "format": "in vivo, human", "conditions": "mixed model, days 8 and 15, effect: treatment; p 0.0430", "description": "as §5\nTable 7 and FIG. 5. Similar trend was observed when comparing Visit and Study Arm* Visit as covariate."}, "[7]": {"test_system": "allergic/atopic asthmatics", "test": "Safety / adverse events, phase II study", "format": "in vivo, human", "conditions": "safety population", "method": "as §2\nOf the 107 subjects who were screened, 63 (58.9%) met eligibility criteria and were randomized. Of the 63 patients who were randomized, 63 (100%) completed the study (32 and 31 in the Compound (l) and placebo groups, respectively). There were not adverse events for discontinuation. The safety population included 63 (placebo: n=31 and Compound (l): n=32). Results are based on the per protocol population (placebo: n= 27 and Compound (l): n= 31).\nThe data highlight the potential of the adenosine A1 receptor antagonist Compound (l) as a promising oral asthma therapy. The safety set included all randomized patients who received at least one dose of any study drug."}, "COPD patients [8]": {"test_system": "COPD patients", "conditions": "raised baseline eosinophils; cited from earlier work"}, "[9]": {"conditions": "change from baseline, 10 mg, N=31"}}}
{"molecule": "O=C(Nc1c(Cl)cncc1Cl)c1ccc(OC(F)F)c(OCC2CC2)c1", "note": "[Roflumilast]", "values": [{"measurement": "bronchoalveolar lavage fluid (BALF) eosinophilia", "setting": "Brown Norway rats", "result": "inhibited"}, {"measurement": "LPS-induced circulating TNFalpha", "setting": "TNFalpha", "result": "abrogated"}, {"measurement": "blood eosinophils", "setting": "[1]", "result": "not in the blood eosinophils"}, {"measurement": "eosinophils in sputum and bronchial biopsy samples", "setting": "[1]", "result": "significant reduction"}]}
{"molecule": "benralizumab: humanized, afucosylated, monoclonal antibody targeting the IL5-receptor α-chain", "values": [{"measurement": "improvements in exacerbation rates, SGRQ-C, CRQ-SAS scores and FEV1", "setting": "COPD patients [2]", "result": "not statistically significant"}]}
{"molecule": "N#Cc1sc(NC(=O)[C@H]2CC[C@@H](C(=O)O)C2)nc1-c1ccccc1", "note": "[Compound (I), (1R,3S)-3-((5-cyano-4-phenylthiazol-2-yl)carbamoyl)cyclopentane-1-carboxylic acid]", "values": [{"measurement": "Eosinophilic Count on Visit V7 (day 15), Mean", "setting": "[3]; 15 days, per protocol population, N=30, baseline mean 392.9", "result": 218, "unit": "cel/ µL"}, {"measurement": "Eosinophilic Count on Visit V7 (day 15), Median", "setting": "[3]; 15 days, per protocol population, N=30, baseline median 370.0", "result": 150.0, "unit": "cel/ µL"}, {"measurement": "Eosinophilic Count, Absolute Change from Baseline, Mean difference vs Placebo (90% Cl)", "setting": "[3]; day 15", "result": "-233.9 (-Inf, -174.6) cel/ µL"}, {"measurement": "Eosinophilic Count, Relative Change from Baseline, Mean difference vs Placebo (90% Cl)", "setting": "[3]; day 15, p-value <0.0001", "result": "-68.0 (-Inf, -51.95)"}, {"measurement": "Eosinophilic Count, Absolute Change from Baseline, Mean", "setting": "[3]; day 15 vs visit V5", "result": -184.7, "unit": "cel/ µL"}, {"measurement": "Eosinophilic Count, Absolute Change from Baseline, Median", "setting": "[3]; day 15 vs visit V5", "result": -195.0, "unit": "cel/ µL"}, {"measurement": "Eosinophilic Count, Relative Change from Baseline, Mean", "setting": "[3]; day 15 vs visit V5", "result": -46.8}, {"measurement": "Eosinophilic Count, Relative Change from Baseline, Median", "setting": "[3]; day 15 vs visit V5", "result": -64.9}, {"measurement": "increase of trough FEV1", "setting": "[4]", "result": "110 to 200", "unit": "mL"}, {"measurement": "Trough FEV1 day 16 (+4-day leeway), LS mean", "setting": "[4]; 10 mg once daily 15 days, N=31, baseline mean 2.7", "result": 3.1, "unit": "L"}, {"measurement": "Trough FEV1 day 16 (+4-day leeway), LS mean difference vs. Placebo", "setting": "[4]; 10 mg once daily 15 days, p 0.0816", "result": 0.18, "unit": "L"}, {"measurement": "FEV1 LS means difference vs Placebo, Eosinophils category High, Estimate (SE)", "setting": "[4]", "result": 0.38, "unit": "L"}, {"measurement": "FEV1 LS means difference vs Placebo, Eosinophils category High, Estimate (SE)", "setting": "[4]; listed as COMPOUND (I)", "result": "0.38 (0.15) L"}, {"measurement": "FEV1 LS means difference vs Placebo, Eosinophils category Low, Estimate (SE)", "setting": "[4]", "result": 0.04, "unit": "L"}, {"measurement": "FEV1 LS means difference vs Placebo, Eosinophils category Low, Estimate (SE)", "setting": "[4]; listed as COMPOUND (I)", "result": "0.04 (0.15) L"}, {"measurement": "FEV1 LS means differences in study arm vs Placebo, Estimate (SE)", "setting": "[4]; mixed model with eosinophils strata, p 0.0596", "result": "0.21 (0.11) L"}, {"measurement": "FEV1 LS means, Estimate (SE), Eosinophils category High", "setting": "[4]; mixed model, trough FEV1 day 16, eosinophils High at visit V1, per protocol", "result": "3.06 (0.11) L"}, {"measurement": "FEV1 LS means, Estimate (SE), Eosinophils category Low", "setting": "[4]; mixed model, trough FEV1 day 16, eosinophils Low at visit V1, per protocol", "result": "3.04 (0.12) L"}, {"measurement": "treatment effect, increase of FEV1 compared to placebo", "setting": "[4]; trough FEV1 day 16, mixed model, p= 0.0816", "result": 180, "unit": "mL"}, {"measurement": "FEV1 AUC30min-23h30min post-dose through days 15-to-16, Mean", "setting": "[5]; [9]", "result": 4.9}, {"measurement": "FEV1 AUC30min-23h30min post-dose through days 15-to-16, Median", "setting": "[5]; [9]", "result": 5.7}, {"measurement": "FEV1 AUC30min-23h30min post-dose through days 15-to-16, Mean difference vs Placebo (90% Cl)", "setting": "[5]; p 0.0435", "result": "3.6 (0.96)"}, {"measurement": "ACQ-7 overall score, Mean difference vs Placebo (90% Cl)", "setting": "[6]", "result": -0.28}, {"measurement": "serious adverse events", "setting": "[7]; 10 mg once daily 15 days", "result": "no serious AEs reported"}, {"measurement": "severity of most adverse events", "setting": "[7]; both groups", "result": "mild/moderate"}]}
{"molecule": "B1", "values": [{"measurement": "sputum and blood eosinophil counts compared with placebo", "setting": "COPD patients [8]", "result": "significantly reduced"}]}
